# Test results taken from patent US20140235576A1, “PYRROLIDINE-2-CARBOXYLIC ACID DERIVATIVES AS IGLUR ANTAGONISTS” (Kobenhavns Universitet, priority 2013, published 2014).
# Like-named read-outs stand apart in the source and are kept apart here. No end group written: not given here.
# What was measured:
# GluN1/GluN2B = GluN1/GluN2B (Homo sapiens, UniProt Q13224); details: cited from earlier work
# KA receptors [1] = details: native iGluR; values taken from reference 49; cited from earlier work
# AMPA receptors [2] = details: native iGluR; values taken from reference 49; cited from earlier work
# NMDA receptors [3] = details: native iGluR; values taken from reference 49; cited from earlier work
# GluK1 = GluK1 (UniProt P22756); assay: Radioligand binding at cloned homomeric GluK1; details: cloned homomeric subtype
# From the text: (§1) Analog 2 was characterized pharmacologically in radio ligand binding assays at native iGluRs (rat synaptosomes) and cloned homomeric subtypes, GluK1-3 (Table 1).
# NMDA receptors [4] = assay: Radioligand binding at native NMDA receptors (rat synaptosomes); details: native iGluRs
# From the text: as §1
# GluN1/GluN2A-D = assay: Functional assay for subtypes GluN1/GluN2A-D; type: biochemical
# AMPA receptors [5] = assay: Radioligand binding at native AMPA receptors (rat synaptosomes); details: native iGluRs
# From the text: as §1
# GluK2 = GluK2 (UniProt P42260); assay: Radioligand binding at cloned homomeric GluK2; details: cloned homomeric subtype
# From the text: as §1
# GluK3 = target: T1, GluK3 (Rattus norvegicus, UniProt P42264); assay: Radioligand binding at cloned homomeric GluK3; details: cloned homomeric subtype
# T1 construct: expressed in transfected cells
# From the text: as §1
# KA receptors [6] = assay: Radioligand binding at native KA receptors (rat synaptosomes); details: native iGluRs
# From the text: as §1
# Sequence of GluN1/GluN2B (Q13224 27-1484, species assumed, other chains not shown): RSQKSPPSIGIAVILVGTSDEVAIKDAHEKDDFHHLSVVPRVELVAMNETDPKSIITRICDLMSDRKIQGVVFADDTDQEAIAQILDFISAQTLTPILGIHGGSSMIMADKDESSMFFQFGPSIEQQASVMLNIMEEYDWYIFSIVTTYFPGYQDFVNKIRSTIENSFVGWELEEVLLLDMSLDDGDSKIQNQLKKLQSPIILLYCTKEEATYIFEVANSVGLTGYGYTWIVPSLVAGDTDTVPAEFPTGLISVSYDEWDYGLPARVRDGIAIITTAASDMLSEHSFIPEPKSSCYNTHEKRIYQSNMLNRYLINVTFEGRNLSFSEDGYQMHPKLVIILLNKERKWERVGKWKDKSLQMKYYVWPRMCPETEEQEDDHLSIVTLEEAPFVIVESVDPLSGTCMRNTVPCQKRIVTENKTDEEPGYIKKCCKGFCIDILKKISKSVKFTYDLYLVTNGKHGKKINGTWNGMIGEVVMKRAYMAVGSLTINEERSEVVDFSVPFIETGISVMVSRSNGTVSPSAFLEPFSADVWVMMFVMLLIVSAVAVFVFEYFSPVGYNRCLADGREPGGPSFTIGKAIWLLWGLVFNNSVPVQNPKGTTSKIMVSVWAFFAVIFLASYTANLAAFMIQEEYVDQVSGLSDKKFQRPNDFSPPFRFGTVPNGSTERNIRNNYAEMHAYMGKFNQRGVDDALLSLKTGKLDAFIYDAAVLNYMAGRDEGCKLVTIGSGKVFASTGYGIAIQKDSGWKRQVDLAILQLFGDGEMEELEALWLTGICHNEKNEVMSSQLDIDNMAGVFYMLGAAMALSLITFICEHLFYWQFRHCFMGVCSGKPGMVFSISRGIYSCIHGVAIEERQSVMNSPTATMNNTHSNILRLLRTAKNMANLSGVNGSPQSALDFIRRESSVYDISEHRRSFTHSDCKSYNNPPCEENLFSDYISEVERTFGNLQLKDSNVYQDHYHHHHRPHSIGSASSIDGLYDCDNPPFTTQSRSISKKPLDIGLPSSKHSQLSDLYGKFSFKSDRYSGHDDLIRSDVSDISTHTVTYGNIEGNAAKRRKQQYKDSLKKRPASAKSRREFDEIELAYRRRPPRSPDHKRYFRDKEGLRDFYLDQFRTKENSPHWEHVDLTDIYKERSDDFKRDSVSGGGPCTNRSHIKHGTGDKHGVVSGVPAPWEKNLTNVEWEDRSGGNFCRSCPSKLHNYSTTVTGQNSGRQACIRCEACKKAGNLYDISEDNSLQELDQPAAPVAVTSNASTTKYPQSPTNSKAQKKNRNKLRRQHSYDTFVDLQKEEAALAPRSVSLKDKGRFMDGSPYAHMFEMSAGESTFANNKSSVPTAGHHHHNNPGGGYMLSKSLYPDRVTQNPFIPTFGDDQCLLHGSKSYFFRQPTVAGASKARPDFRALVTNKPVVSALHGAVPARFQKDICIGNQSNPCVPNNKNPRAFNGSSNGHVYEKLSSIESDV
# T1 sequence (P42264 32-919): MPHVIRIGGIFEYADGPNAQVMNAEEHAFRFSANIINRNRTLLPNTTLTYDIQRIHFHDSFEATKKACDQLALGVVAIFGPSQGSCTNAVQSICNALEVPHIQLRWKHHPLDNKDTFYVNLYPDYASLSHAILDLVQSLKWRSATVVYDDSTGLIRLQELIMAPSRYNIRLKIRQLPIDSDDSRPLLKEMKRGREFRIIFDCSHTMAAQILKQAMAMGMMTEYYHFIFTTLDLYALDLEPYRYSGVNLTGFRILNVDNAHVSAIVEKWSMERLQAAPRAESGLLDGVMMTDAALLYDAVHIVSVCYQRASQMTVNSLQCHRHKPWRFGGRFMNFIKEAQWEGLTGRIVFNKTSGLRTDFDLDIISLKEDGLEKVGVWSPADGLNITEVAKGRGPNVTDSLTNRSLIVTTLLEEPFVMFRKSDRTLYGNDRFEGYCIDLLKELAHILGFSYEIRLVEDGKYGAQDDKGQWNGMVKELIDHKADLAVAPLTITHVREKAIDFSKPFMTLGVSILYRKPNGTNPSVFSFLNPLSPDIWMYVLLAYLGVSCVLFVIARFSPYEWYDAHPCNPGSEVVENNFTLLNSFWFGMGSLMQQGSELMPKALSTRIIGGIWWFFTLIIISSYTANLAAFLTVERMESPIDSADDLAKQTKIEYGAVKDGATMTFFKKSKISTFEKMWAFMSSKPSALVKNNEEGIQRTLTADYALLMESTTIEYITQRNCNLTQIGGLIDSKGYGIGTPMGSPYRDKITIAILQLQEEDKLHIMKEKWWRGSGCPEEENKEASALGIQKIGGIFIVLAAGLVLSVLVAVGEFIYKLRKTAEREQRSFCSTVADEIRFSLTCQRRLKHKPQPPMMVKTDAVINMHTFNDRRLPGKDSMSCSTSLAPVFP
compound,measurement,setting,value
"Conantokin G (GEEELQENQELIREKSN; ends and bridges not checked; UniProt P07231 81-97, looked up)",preference for GluN1/GluN2B over GluN1/GluN2C and GluN1/2D,GluN1/GluN2B,10 fold
same,selectivity for GluN1/GluN2B over GluN1GluN2A,GluN1/GluN2B,100 fold
O=C(O)c1cccc([C@H]2CCN[C@@H]2C(=O)O)c1 [Analog 1],KA IC50,KA receptors [1],22 µM
same,IC50,AMPA receptors [2],51 µM
same,Ki,NMDA receptors [3],6 µM
"O=C(O)c1ccc([C@H]2CCN[C@@H]2C(=O)O)cc1 [Analog 2, (2S,3R)-3-(4-Carboxyphenyl)pyrrolidine-2-carboxylic Acid]",Ki,GluK1,> 100 µM
same,Ki,NMDA receptors [4],8.5 µM
same,"NMDA, value in square brackets under Ki (pKi ± spread)",NMDA receptors [4],[5.07 ± 0.04]
same,IC50,NMDA receptors [4]; read-out: affinity for the NMDA receptors (IC50),8.5 µM
same,functional character at GluN1/GluN2A-D,GluN1/GluN2A-D,antagonist
same,IC50,AMPA receptors [5],> 100 µM
same,Ki,GluK2,> 100 µM
same,Ki,GluK3,> 100 µM
same,KA IC50,KA receptors [6],>100 µM
